Reference: patent US10752581B2, “4-((2-hydroxy-3-methoxybenzyl)amino)benzenesulfonamide derivatives as potent and selective inhibitors of 12-lipoxygenase” (Eastern Virginia Medical School, priority 2013, dated 2020)
“Also recorded” adds a separate entry of the source.

What was measured:
[1] = biological target: human platelet 12-lipoxygenase (12-LOX) (Homo sapiens (Human), UniProt P18054); conditions: for IC50: read-out: IC50 [+SD], Table 1, UV-vis cuvette-based assay in triplicate
[2] = biological target: human epithelial 15-lipoxygenase-2 (15-LOX-2) (Homo sapiens (Human), UniProt O15296); assay: biochemical
washed human platelets [3] = assay: PAR4-AP-induced calcium mobilization; format: cell-based; conditions: 200 μM PAR4-AP; increasing concentrations
Method: (§1) Blood was centrifuged at 200 g for 13 min at room temperature.

[4] = Parallel Artificial Membrane Permeability Assay (PAMPA); conditions: PAMPA at pH 7.4
[5] = tested on: human donor islet preparations; assay: Glucose-stimulated insulin secretion in human islets; format: cell-based; conditions: cytokines (TNFα, IL-1β, IFNγ); 3 mM or 18 mM glucose
Method: FIGS. 3D and 3E show results from glucose-stimulated insulin secretion in human donor islet preparations in response to 3 mM glucose (Low) or 18 mM glucose (High) for control (untreated) islets. […] FIGS. 3D and 3E represent results obtained in different human donor islet preparations.

[6] = PBS buffer (pH 7.4) solubility; format: physicochemical
12-LOX = 12-LOX (Homo sapiens (Human), UniProt P18054)
Method: Reactions were initiated by adding substrate (range 1-5 μM AA) to approximately 30 nM 12-LOX in a constantly stirring 2 mL cuvette containing 25 mM HEPES buffer (pH 7.5), in the presence of 0.01% Triton X-100. […] Kinetic data were obtained by recording initial enzymatic rates, at varied substrate and inhibitor concentrations, and subsequently fitted to the Henri-Michaelis-Menten equation, using KaleidaGraph (Synergy) to determine the microscopic rate constants, Vmax (μmol/min/mg) and Vmax/KM (μmol/min/mg/μM).

Mouse beta cells (BTC3) = assay: Mouse Beta cells (12-HETE Inhibition) Assay; conditions: AA/IONO
Method: After four hours, the media was removed and spun at 1000 RPM for 5 minutes. The cleared supernatant was stored at −80° C. prior to analysis.

washed human platelets [7] = assay: PAR4-AP-induced platelet aggregation; format: cell-based
Method: as §1

mouse plasma stability = format: in vitro ADME
[8] = Microsomal stability (rat); format: in vitro ADME
[9] = Stability in aqueous buffers and glutathione; format: physicochemical

human platelet 12-lipoxygenase (12-LOX), sequence (P18054 whole entry): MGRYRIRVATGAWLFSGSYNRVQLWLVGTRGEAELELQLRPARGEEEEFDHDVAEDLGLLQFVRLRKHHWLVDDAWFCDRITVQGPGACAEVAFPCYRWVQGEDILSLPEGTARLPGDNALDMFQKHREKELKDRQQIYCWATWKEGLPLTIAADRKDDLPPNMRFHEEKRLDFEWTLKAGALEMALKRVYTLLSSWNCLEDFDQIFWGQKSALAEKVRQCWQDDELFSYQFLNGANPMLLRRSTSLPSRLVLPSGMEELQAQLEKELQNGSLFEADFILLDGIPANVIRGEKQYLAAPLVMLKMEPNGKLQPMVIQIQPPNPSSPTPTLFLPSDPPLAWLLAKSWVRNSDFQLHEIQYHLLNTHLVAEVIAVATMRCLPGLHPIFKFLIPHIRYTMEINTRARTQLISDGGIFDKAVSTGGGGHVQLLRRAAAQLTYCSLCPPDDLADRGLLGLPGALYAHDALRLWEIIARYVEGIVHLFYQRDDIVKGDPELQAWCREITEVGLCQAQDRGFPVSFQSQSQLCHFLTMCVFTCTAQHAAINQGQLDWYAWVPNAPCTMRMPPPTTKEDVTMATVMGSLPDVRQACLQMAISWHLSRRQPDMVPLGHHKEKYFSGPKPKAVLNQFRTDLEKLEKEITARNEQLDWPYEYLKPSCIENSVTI
12-LOX, sequence (P18054 whole entry): as above
human epithelial 15-lipoxygenase-2 (15-LOX-2), sequence (O15296 whole entry): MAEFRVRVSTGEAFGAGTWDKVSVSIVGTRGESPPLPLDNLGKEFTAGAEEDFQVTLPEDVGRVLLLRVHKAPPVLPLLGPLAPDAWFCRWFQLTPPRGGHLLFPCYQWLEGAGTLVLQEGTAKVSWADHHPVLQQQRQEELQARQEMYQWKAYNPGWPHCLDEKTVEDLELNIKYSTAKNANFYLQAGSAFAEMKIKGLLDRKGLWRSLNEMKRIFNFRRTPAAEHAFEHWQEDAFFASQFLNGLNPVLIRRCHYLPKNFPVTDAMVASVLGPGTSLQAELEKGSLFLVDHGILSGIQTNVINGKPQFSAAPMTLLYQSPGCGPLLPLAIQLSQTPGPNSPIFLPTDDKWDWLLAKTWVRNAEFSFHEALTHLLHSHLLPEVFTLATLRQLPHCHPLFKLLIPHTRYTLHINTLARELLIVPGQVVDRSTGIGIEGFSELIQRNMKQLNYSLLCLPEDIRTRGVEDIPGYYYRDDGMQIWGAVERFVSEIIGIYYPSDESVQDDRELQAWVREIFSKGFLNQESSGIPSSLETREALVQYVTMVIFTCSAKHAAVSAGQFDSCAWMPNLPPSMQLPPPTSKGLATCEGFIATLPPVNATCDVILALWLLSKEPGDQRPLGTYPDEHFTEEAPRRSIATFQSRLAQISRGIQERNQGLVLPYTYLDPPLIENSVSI

O=S(=O)(Nc1nccs1)c1ccc(NCc2cccc(O)c2)cc1 [Compound 14, 4-(3-hydroxybenzylamino)-N-(thiazol-2-yl)benzene sulfonamide]
IC50 [1]: > 40 µM

O=S(=O)(Nc1nccs1)c1ccc(NCc2ccccc2)cc1 [Compound 8, 4-(benzylamino)-N-(thiazol-2-yl)benzene sulfonamide]
12-LOX inhibitory activity (SAR, in words) [1]: complete loss of activity | IC50 [1]: > 40 µM

COc1cccc(CNc2ccc(S(=O)(=O)Nc3nccs3)cc2)c1O [Compound 1, 4-(2-hydroxy-3-methoxybenzylamino)-N-(thiazol-2-yl)benzenesulfonamide]
IC50 [2]: > 40 µM

Nc1ccccc1CNc1ccc(S(=O)(=O)Nc2nccs2)cc1 [Compound 13, 4-(2-aminobenzylamino)-N-(thiazol-2-yl)benzene sulfonamide]
12-LOX inhibitory activity (SAR, in words) [1]: negated all 12-LOX inhibitory activity | IC50 [1]: > 40 µM

COc1cccc(CNc2ccc(S(=O)(=O)Nc3nc4ccccc4o3)cc2)c1O [Compound 36, N-(benzo[d]oxazol-2-yl)-4-((2-hydroxy-3-methoxybenzyl)amino)benzenesulfonamide]
PAR4-AP-induced calcium mobilization (in words) (washed human platelets [3]): Calcium mobilization was decreased; also recorded: Comparable results | permeability (1 × 10^−6 cm/s) [4]: 168^c 1 × 10^−6 cm/s | glucose-stimulated insulin secretion with cytokines [5]: Uncoupling of glucose-stimulated insulin secretion by cytokines is inhibited | solubility ([6]; PBS buffer, pH 7.4, aqueous buffer): > 60 µg/mL | improvement of solubility in buffer ([6]; relative to ML355): > 10 fold | mode of inhibition (12-LOX): mixed inhibitors | inhibition of 12-HETE in mouse beta cells (in words) (Mouse beta cells (BTC3)): Comparable results | PAR4-AP induced platelet aggregation (in words) (washed human platelets [7]): Comparable results | mouse plasma stability remaining at 2 h (%) (mouse plasma stability): 100% | half-life ([8]; microsomes, rat, in the presence of NADPH, read-out: Microsomal stability T1/2): > 30 min | microsomal degradation without NADPH ([8]; without NADPH present over a 1 h period): ^bRepresents the stability in the presence of NADPH. 35 and 36 showed no degradation without NADPH present over a 1 h period. | PBS buffer (pH 7.4) stability at 48 h (%) [9]: 100%

O=S(=O)(Nc1nccs1)c1ccc(NCc2ccccc2O)cc1 [Compound 9, 4-(2-hydroxybenzylamino)-N-(thiazol-2-yl)benzene sulfonamide]
12-LOX inhibitory activity (SAR, in words) [1]: complete loss of activity | IC50 [1]: > 40 µM
